Measurements published in ChEMBL document CHEMBL4364342, “Structural and Molecular Insight into Resistance Mechanisms of First Generation cMET Inhibitors” (ACS Med Chem Lett, 2019).

How the values were obtained:
NCI-H1993 [1] = assay: Growth inhibition of wild type human NCI-H1993 cells incubated for 3 days by cell titer-glo luminescent cell viability assay; assay type: functional; details: NCI-H1993, 72 h
NCI-H1993 [2] = assay: Growth inhibition of CRISPR/Cas9 modified human NCI-H1993 cells harboring cMET D1228V mutant incubated for 3 days by cell titer-glo luminescent cell viability assay; assay type: functional; details: NCI-H1993, 72 h
[3] = molecular target: T1, Hepatocyte growth factor receptor (Homo sapiens, UniProt P08581); assay: Inhibition of c-Met phosphorylation at Tyr 1234/Tyr1235 residues in human NCI-H1993 cells incubated for 4 hrs by HTRF assay; assay type: cell-based
[4] = molecular target: T2, Hepatocyte growth factor receptor (Homo sapiens, UniProt P08581, D1228V); assay: Inhibition of c-MET D1228V mutant phosphorylation at Tyr1234/Tyr1235 residues in CRISPR/Cas9 modified human NCI-H1993 cells incubated for 4 hrs by HTRF assay; assay type: cell-based
[5] = molecular target: T1, Hepatocyte growth factor receptor; assay: Inhibition of wild type N-terminal NH-tagged and avi-tagged dephosphorylated c-MET (956 to 1390 residues) (unknown origin) expressed in sf21 cells using poly (Glu,Tyr) as substrate measured after 60 mins by ADP-Glo kinase assay
[6] = molecular target: T2, Hepatocyte growth factor receptor; assay: Inhibition of N-terminal NH-tagged and avi-tagged dephosphorylated c-MET D1228V mutant (956 to 1390 residues) (unknown origin) expressed in sf21 cells using poly (Glu,Tyr) as substrate measured after 60 mins by ADP-Glo kinase assay
NCI-H1993 [7] = assay: Resistance index, ratio of GI50 for CRISPR/Cas9 modified human NCI-H1993 cells harboring cMET D1228V mutant to GI50 for wild type human NCI-H1993 cells by cell-titer glo luminescent cell viability assay; assay type: functional

## COc1cc2c(Oc3ccc(NC(=O)C4(C(=O)Nc5ccc(F)cc5)CC4)cc3F)ccnc2cc1OCCCN1CCOCC1 [FORETINIB]
NCI-H1993 [1]
  GI50: 61.7 nM
NCI-H1993 [2]
  GI50: 52.5 nM

## C[C@@H](c1ccc2nccn2c1)n1nnc2ncc(-c3cnn(C)c3)nc21 [SAVOLITINIB]
NCI-H1993 [1]
  GI50: 9.33 nM
NCI-H1993 [2]
  GI50: 8320 nM
[3]
  IC50: 2 nM
[4]
  IC50: > 31600 nM
[5]
  IC50: < 2.51 nM
[6]
  IC50: 676 nM
NCI-H1993 [7]
  RatioGI50: > 800

## CCOc1ccn(-c2ccc(F)cc2)c(=O)c1C(=O)Nc1ccc(Oc2ccnc(N)c2Cl)c(F)c1 [BMS-777607]
[3]
  IC50: 12.3 to 214 nM
[4]
  IC50: 12.3 to 214 nM
[5]
  IC50: < 2.51 nM
[6]
  IC50: < 2.51 nM
